As a reminder, the Ki is the equilibrium dissociation constant of an inhibitor or competing ligand from its target. Read a high Ki as a looser hold on the target.

Molecules are shown by their SMILES.

The target in the first experiment is tau (Homo sapiens, UniProt P10636). Kind of experiment: displacement tau binding assay in AD brain homogenates with [^3H]-6. As to conditions: Table 1, displacement of [^3H]-6 (0.25 nM). The protocol: The frozen human brain samples of Alzheimer's disease (AD) were purchased from Analytic Biological Services Inc. They were postmortem tissue from donors with clinical diagnosis of AD. As much of the white matter was dissected out of the frontal cortex in order to enrich the tissue preparations for gray matter. Brain homogenates of gray matter enriched frontal cortex were prepared by homogenizing the tissue in ice cold Phosphate Buffered Saline (PBS), pH 7.4 at 80 mg wet weight tissue per 1 mL for 45 seconds at 4° C. on setting 16 of Polytron. The homogenate was further diluted with ice cold PBS to 30 mg wet weight tissue per 1 mL and homogenized for an additional minute as described above. Homogenates were aliquoted in 5 ml/tube and store at −70° C. until use. […] Brain homogenates were diluted to 0.5 mg/mL from original 30 mg/mL volume in Assay Buffer, and 200 μl were added to the assay plate for a final concentration of 100 μg wet weight/assay tube. [^3H]-6 was prepared at […] final concentration in Assay Buffer plus 20% DMSO and 25 μl was added to the assay plate for final assay concentration of 0.25 nM. The assay plate was incubated at room temperature (25° C.) for 90 minutes. […] Filter plates were dried for 1 hour in a vacuum oven and 50 μl/well MicroScint-20 were added. Plates were counted 1 min per well by Packard Topcount. Total amount of radioligand used in the assay was determined by counting 25 μl of 10× ligand stock. […] Tau Ki data for representative compounds of the invention are found in Table 1.
Sequence of tau (P10636 2-758 limits assumed): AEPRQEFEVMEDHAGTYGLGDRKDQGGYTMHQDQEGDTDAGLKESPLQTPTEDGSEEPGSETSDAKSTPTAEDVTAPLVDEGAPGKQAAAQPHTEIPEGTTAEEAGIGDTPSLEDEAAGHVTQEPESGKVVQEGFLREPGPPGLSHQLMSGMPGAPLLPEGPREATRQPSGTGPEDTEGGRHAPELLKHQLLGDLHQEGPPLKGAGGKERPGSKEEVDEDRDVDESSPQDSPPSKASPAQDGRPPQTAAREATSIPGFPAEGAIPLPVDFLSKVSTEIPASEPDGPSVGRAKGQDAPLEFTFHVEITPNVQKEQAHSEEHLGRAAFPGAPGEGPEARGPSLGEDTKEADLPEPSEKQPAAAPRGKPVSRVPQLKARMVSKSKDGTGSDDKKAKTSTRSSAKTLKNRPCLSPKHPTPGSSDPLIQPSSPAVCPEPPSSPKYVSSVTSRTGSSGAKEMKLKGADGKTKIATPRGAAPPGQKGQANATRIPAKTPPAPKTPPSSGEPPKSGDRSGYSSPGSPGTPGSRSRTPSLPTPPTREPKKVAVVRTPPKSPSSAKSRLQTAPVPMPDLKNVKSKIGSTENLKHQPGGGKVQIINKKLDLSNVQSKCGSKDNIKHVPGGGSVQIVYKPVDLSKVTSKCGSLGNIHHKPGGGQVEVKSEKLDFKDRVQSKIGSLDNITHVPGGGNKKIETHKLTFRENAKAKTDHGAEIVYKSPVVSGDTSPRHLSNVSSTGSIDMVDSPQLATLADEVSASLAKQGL
With `c1cc2ccn(-c3ccc(-c4nc[nH]n4)cn3)c2cn1` [Compound 41, 1-(5-(1H-1,2,4-triazol-3-yl)pyridin-2-yl)-1H-pyrrolo[2,3-c]pyridine], the inhibition constant Ki is 8.8 nM.

`CN(CCO)c1ccc2cnc(-n3ccc4ccncc43)cc2c1` [Compound 66]: affinity was put at a Ki of 4.07 nM.

`Nc1ccc2cc(-n3ccc4ccncc43)ncc2c1` [Compound 12, 3-(1H-pyrrolo[2,3-c]pyridin-1-yl)isoquinolin-7-amine] came in with an inhibition constant Ki of 0.29 nM.

`Fc1cc2ccn(-c3cc4ccccc4cn3)c2cn1` [Compound 38, 3-(5-fluoro-1H-pyrrolo[2,3-c]pyridin-1-yl)isoquinoline] registered a Ki of 52.3 nM.

In turn, `Nc1cccc2cnc(-n3ccc4ccncc43)cc12` [Compound 11-5, 3-(1H-pyrrolo[2,3-c]pyridin-1-yl)isoquinolin-5-amine] yielded a Ki of 0.4 nM.

On to `c1cc(-c2ccc(-n3ccc4ccncc43)nc2)ncn1` [Compound 46, 1-(5-(pyrimidin-4-yl)pyridin-2-yl)-1H-pyrrolo[2,3-c]pyridine], for which the inhibitory constant (Ki) was 2.19 nM.

In turn, `Cn1ccc(-c2ccc(-n3ccc4ccncc43)nc2)n1` [Compound 63] returned a Ki of 2.84 nM. This Ki and that of the compound before are within 1.5-fold of each other.

As to `c1cc2cnc(-n3ccc4ccncc43)cc2cn1` [Compound 26, 3-(1H-pyrrolo[2,3-c]pyridin-1-yl)-2,6-naphthyridine], the affinity corresponds to a Ki of 2.27 nM.

`CNc1ccc(-c2ccc(-n3ccc4ccncc43)nc2)cn1` [Compound 88] returned an inhibitory constant (Ki) of 0.69 nM. Against the preceding compound, the Ki is about 3.3-fold lower.

In turn, `Fc1cccc2cnc(-n3ccc4ccncc43)cc12` [Compound 54] registered a Ki of 1.05 nM.

On to `FCOc1ccc2nc(-n3ccc4ccncc43)ncc2c1` [Compound 24, 6-(fluoromethoxy)-2-(1H-pyrrolo[2,3-c]pyridin-1-yl)quinazoline], for which the Ki amounted to 12.8 nM. This Ki lies about 12-fold higher than the previous one.

Take `ClCCC1CCN(c2ccc(-n3ccc4ccncc43)nc2)CC1` [Compound 31, 1-(5-(4-(2-chloroethyl)piperidin-1-yl)pyridin-2-yl)-1H-pyrrolo[2,3-c]pyridine]: the affinity corresponds to a Ki of 2.88 nM.

Regarding `c1cc2ccn(-c3cc4cc[nH]c4cn3)c2cn1` [Compound 8, 1-(1H-pyrrolo[2,3-c]pyridin-5-yl)-1H-pyrrolo[2,3-c]pyridine], the affinity corresponds to a Ki of 0.48 nM.

Take `COc1ccc2nc(-n3ccc4ccncc43)ncc2c1` [Compound 24-4, 6-methoxy-2-(1H-pyrrolo[2,3-c]pyridin-1-yl)quinazoline]: affinity was put at a Ki of 1.55 nM.

For `c1cc2ccn(-c3ccc(-c4cncs4)cn3)c2cn1` [Compound 53], the inhibition constant (Ki) is 1.02 nM.

`FCCOc1cccc2cnc(-n3ccc4ccncc43)cc12` [Compound 71] came in with a Ki of 172 nM.

`CNc1ccc2cnc(-n3ccc4ccncc43)cc2c1` [Compound 14-1, N-methyl-3-(1H-pyrrolo[2,3-c]pyridin-1-yl)isoquinolin-6-amine] registered an inhibitory constant (Ki) of 0.33 nM. Compared with the last compound, the Ki is about 520-fold lower.

Regarding `FCOc1cccc2cc(-n3ccc4ccncc43)ncc12` [Compound 55], the affinity, expressed as Ki, was 1.14 nM.

In turn, `FCCn1ccc(-c2cnc(-n3ccc4ccncc43)nc2)n1` [Compound 29, 1-(5-(1-(2-fluoroethyl)-1H-pyrazol-3-yl)pyrimidin-2-yl)-1H-pyrrolo[2,3-c]pyridine] registered a Ki of 2.41 nM.

In turn, `Nc1cc(-c2ccc(-n3ccc4ccncc43)nc2)ccn1` [Compound 99] displayed an inhibition constant Ki of 0.55 nM.

Still in this experiment, the particulars now being: Table 2, displacement of [^3H]-6 (0.25 nM).
The compound `Nc1c(I)ccc2cc(-n3ccc4ccncc43)ncc12` [Compound 121] showed an inhibitory constant (Ki) of 0.512 nM. That is a sub-nanomolar value.

Regarding `Nc1cc2cc(-n3ccc4ccncc43)ncc2cc1F` [Compound 109], the Ki worked out at 0.423 nM.

Compound `Nc1cccc2cnc(-n3ccc4ccnc(F)c43)cc12` [Compound 107] had a Ki of 10000 nM.

On to `Nc1ccc(F)c2cc(-n3ccc4ccncc43)ncc12` [Compound 117], for which affinity was put at a Ki of 2 nM.

As for `Nc1cc(F)cc2cc(-n3ccc4ccncc43)ncc12` [Compound 112], the Ki stood at 0.672 nM.

Regarding `Nc1ccc2cc(-n3ccc4ccncc43)ncc2c1F` [Compound 108], the Ki amounted to 0.677 nM. This Ki and that of the compound before are within 1.5-fold of each other.

These data come from patent US10022461B2, “Pyrrolo[2,3-C]pyridines as imaging agents for neurofibrilary tangles” (MERCK SHARP & DOHME CORP., priority 2014, dated 2018).
